Among the data in US20260265329A1, “POLYPEPTIDE AND DERIVATIVE THEREOF, COMPOSITION, AND USE THEREOF” (HANGZHOU SCIWIND BIOSCIENCES CO., LTD., priority 2023, published 2026) are Relative activity and EC50 values, retold here.

Starred links: 1 amine or outer side, 2 acyl side, 3 side chain; linkers in the order of their positions; H or OH if unused. Non-standard residues stand in square brackets, D forms with d. Residues, ends and D or L forms follow the SMILES beside them. *: point of attachment. C20 diacid = O=C(O)CCCCCCCCCCCCCCCCCCC(=O)*; γGlu = O=C(O)[C@H](CCC(=O)[*:2])N[*:1]; Hyp = O=C(O)[C@@H]1C[C@@H](O)CN1; AEEA = NCCOCCOCC(=O)O

For the test, the target named is T1, human amylin receptors (Homo sapiens, UniProt O60896+P30988).
T1 construct: host or cells: CHO-K1/Ga15/AMY3 cells, further stably transfected with a CRE-luciferase plasmid
T1 sequence (P30988 25-474): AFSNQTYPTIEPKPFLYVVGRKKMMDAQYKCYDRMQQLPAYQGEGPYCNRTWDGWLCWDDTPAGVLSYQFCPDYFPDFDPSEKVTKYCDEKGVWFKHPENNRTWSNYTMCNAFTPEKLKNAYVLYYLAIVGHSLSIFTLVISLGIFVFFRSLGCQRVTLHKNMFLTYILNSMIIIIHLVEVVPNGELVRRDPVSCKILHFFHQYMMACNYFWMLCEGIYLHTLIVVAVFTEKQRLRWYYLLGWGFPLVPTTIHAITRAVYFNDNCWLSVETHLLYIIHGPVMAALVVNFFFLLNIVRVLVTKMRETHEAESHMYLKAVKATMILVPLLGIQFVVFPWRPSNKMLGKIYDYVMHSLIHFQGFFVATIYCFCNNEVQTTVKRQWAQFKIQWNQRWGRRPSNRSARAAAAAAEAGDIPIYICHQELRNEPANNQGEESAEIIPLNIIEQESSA
T1 sequence (O60896 24-148 partner): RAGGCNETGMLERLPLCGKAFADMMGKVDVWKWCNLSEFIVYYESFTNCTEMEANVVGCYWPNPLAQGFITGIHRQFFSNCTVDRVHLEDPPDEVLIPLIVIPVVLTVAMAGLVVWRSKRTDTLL
Description: Luciferase assay in stably transfected amylin receptor/CRE-luc CHO cell line. It is filed as cell-based. As to conditions: for Relative activity: EC50 ratio of Cagrilintide to the compound, Cagrilintide 100%; for EC50: amylin receptor/CRE-luc CHO cells, 24 hours incubation, luminescence. From the text: The objective of this assay is to test the potency of derivatives of polypeptides of the present application on human amylin receptors in vitro using a luciferase assay. Using the standard protocol, CHO-K1/Ga15/AMY3 cells (purchased from GenScript, with the calcitonin receptor and the receptor activity modifying peptide (RAMP) constructed already) were transfected with a plasmid containing a luciferase expression cassette driven by multiple copies of cAMP response elements (CREs). The cells were cultured in an F12 medium containing 200 μg/mL Zeocin, 2 μg/mL puromycin, 100 μg/mL hygromycin, and 400 μg/mL G418 to afford a stably transfected amylin receptor/CRE-luc cell line. The lyophilized powder from Example 1 was dissolved in 20 mM phosphate buffer solution with a pH of 7.0, and diluted in a growth medium (F12 culture medium containing 10% FBS) to give a derivative sample with an initial concentration of 10 nM, which was then subjected to a 5-fold serial dilution in the growth medium to obtain seven samples with concentrations between […]. In each well of a white 96-well plate, 50 μL of the tested sample solution was added with a corresponding concentration. The stably transfected amylin receptor/CRE-luc CHO cells were resuspended in the growth medium at a certain density, and 50 μL of the cell suspension was added at a density of about 20000 cells per well to the white 96-well plate containing the tested sample solution. After incubation of 24 hours at 37° C. and 5% CO2, 100 μL of a Luciferase substrate was added to each well, incubated for 3 minutes, and finally was tested for luminescence on SpectraMax L (Molecular Devices) with the software SoftMax Pro 7.0.3 GxP.

What is called EC50 is the concentration giving half of the maximal effect. A higher EC50 goes with lower potency in that assay. Regarding `CC[C@H](C)[C@H](NC(=O)[C@H](CC(=O)O)NC(=O)[C@H](CCCNC(=N)N)NC(=O)[C@H](CC(=O)O)NC(=O)[C@H](CCCNC(=N)N)NC(=O)[C@H](CC(=O)O)NC(=O)[C@@H](NC(=O)[C@H](Cc1ccccc1)NC(=O)[C@H](Cc1c[nH]cn1)NC(=O)[C@H](CCCNC(=N)N)NC(=O)[C@H](CC(C)C)NC(=O)[C@H](Cc1ccccc1)NC(=O)[C@H](CC(=O)O)NC(=O)[C@H](C)NC(=O)[C@H](CC(C)C)NC(=O)[C@H](CCCNC(=N)N)NC(=O)[C@H](CCC(N)=O)NC(=O)[C@@H](NC(=O)[C@H](C)NC(=O)[C@H](C)NC(=O)[C@@H](NC(=O)[C@H](CO)NC(=O)[C@H](CC(C)C)NC(=O)[C@H](CCC(N)=O)NC(=O)[C@H](CO)NC(=O)[C@H](C)NC(=O)[C@H](CC(=O)O)NC(=O)CCCCCCCCCCCCCCCCCCC(=O)O)[C@@H](C)O)[C@@H](C)O)[C@@H](C)O)C(=O)N[C@@H](CC(C)C)C(=O)N1CCC[C@H]1C(=O)N1CCC[C@H]1C(=O)N[C@H](C(=O)N[C@@H](CC(N)=O)C(=O)N[C@H](C(=O)NCC(=O)N[C@@H](CO)C(=O)N[C@@H](CC(N)=O)C(=O)N[C@H](C(=O)N1CCC[C@H]1C(N)=O)[C@@H](C)O)C(C)C)[C@@H](C)O` [M13] ({C20 diacid}-DASQLSTAATQRLADFLRHFTDRDRDILPPTNVGSNTP-NH2), the Relative activity was 78% and it took 0.034 nM to reach a half-maximal effect (EC50).

As for `CC[C@H](C)[C@H](NC(=O)[C@H](CC(=O)O)NC(=O)[C@H](CCCNC(=N)N)NC(=O)[C@H](CC(=O)O)NC(=O)[C@H](CCCNC(=N)N)NC(=O)[C@H](CC(=O)O)NC(=O)[C@@H](NC(=O)[C@H](Cc1ccccc1)NC(=O)[C@H](Cc1c[nH]cn1)NC(=O)[C@H](CCCNC(=N)N)NC(=O)[C@H](CC(C)C)NC(=O)[C@H](Cc1ccccc1)NC(=O)[C@H](CC(=O)O)NC(=O)[C@H](C)NC(=O)[C@H](CC(C)C)NC(=O)[C@H](CCCNC(=N)N)NC(=O)[C@H](CCC(N)=O)NC(=O)[C@@H](NC(=O)[C@H](C)NC(=O)[C@H](C)NC(=O)[C@@H](NC(=O)[C@H](CO)NC(=O)[C@H](CC(C)C)NC(=O)[C@H](CCC(N)=O)NC(=O)[C@H](CO)NC(=O)[C@H](C)NC(=O)COCCOCCNC(=O)COCCOCCNC(=O)COCCOCCNC(=O)COCCOCCNC(=O)CC[C@H](NC(=O)CCCCCCCCCCCCCCCCCCC(=O)O)C(=O)O)[C@@H](C)O)[C@@H](C)O)[C@@H](C)O)C(=O)N[C@@H](CC(C)C)C(=O)N1CCC[C@H]1C(=O)N1CCC[C@H]1C(=O)N[C@H](C(=O)N[C@@H](CC(N)=O)C(=O)N[C@H](C(=O)NCC(=O)N[C@@H](CO)C(=O)N[C@@H](CC(N)=O)C(=O)N[C@H](C(=O)N1CCC[C@H]1C(N)=O)[C@@H](C)O)C(C)C)[C@@H](C)O` [M24] ({C20 diacid-γGlu-AEEA-AEEA-AEEA-AEEA}-ASQLSTAATQRLADFLRHFTDRDRDILPPTNVGSNTP-NH2), the Relative activity came out at 47% and the response was half-maximal at 0.066 nM (EC50).

Regarding `CC[C@H](C)[C@H](NC(=O)[C@@H]1CCCN1C(=O)[C@H](CCCCN)NC(=O)[C@H](CC(C)C)NC(=O)[C@H](CC(N)=O)NC(=O)[C@H](CC(N)=O)NC(=O)[C@H](CO)NC(=O)[C@H](CO)NC(=O)[C@H](Cc1c[nH]cn1)NC(=O)[C@H](CCCNC(=N)N)NC(=O)[C@H](CC(C)C)NC(=O)[C@H](Cc1ccccc1)NC(=O)[C@H](CC(=O)O)NC(=O)[C@H](C)NC(=O)[C@H](CC(C)C)NC(=O)[C@H](CCCNC(=N)N)NC(=O)[C@H](CCC(N)=O)NC(=O)[C@@H](NC(=O)[C@H](C)NC(=O)[C@H](C)NC(=O)[C@@H](NC(=O)[C@H](CO)NC(=O)[C@H](CC(C)C)NC(=O)[C@H](CCC(N)=O)NC(=O)[C@H](CO)NC(=O)[C@H](C)NC(=O)[C@H](CC(=O)O)NC(=O)CCCCCCCCCCCCCCCCCCC(=O)O)[C@@H](C)O)[C@@H](C)O)C(=O)N[C@@H](CC(C)C)C(=O)N1CCC[C@H]1C(=O)N1CCC[C@H]1C(=O)N[C@H](C(=O)N[C@@H](CC(N)=O)C(=O)N[C@H](C(=O)NCC(=O)N[C@@H](CO)C(=O)N[C@@H](CC(N)=O)C(=O)N[C@H](C(=O)N1C[C@H](O)C[C@H]1C(N)=O)[C@@H](C)O)C(C)C)[C@@H](C)O` [M28] ({C20 diacid}-DASQLSTAATQRLADFLRHSSNNLKPILPPTNVGSNT[Hyp]-NH2), the Relative activity is listed as 128% and the EC50 is 0.039 nM.

Consider `CC[C@H](C)[C@H](NC(=O)[C@H](CC(=O)O)NC(=O)[C@H](CCCNC(=N)N)NC(=O)[C@H](CC(=O)O)NC(=O)[C@H](CCCNC(=N)N)NC(=O)[C@H](CC(=O)O)NC(=O)[C@@H](NC(=O)[C@H](Cc1ccccc1)NC(=O)[C@H](Cc1c[nH]cn1)NC(=O)[C@H](CCCNC(=N)N)NC(=O)[C@H](CC(C)C)NC(=O)[C@H](Cc1ccccc1)NC(=O)[C@H](CC(=O)O)NC(=O)[C@H](C)NC(=O)[C@H](CC(C)C)NC(=O)[C@H](CCCNC(=N)N)NC(=O)[C@H](CCC(N)=O)NC(=O)[C@@H](NC(=O)[C@H](C)NC(=O)[C@H](C)NC(=O)[C@@H](NC(=O)[C@H](CO)NC(=O)[C@H](CC(C)C)NC(=O)[C@H](CCC(N)=O)NC(=O)[C@H](CO)NC(=O)[C@H](C)NC(=O)COCCOCCNC(=O)COCCOCCNC(=O)CC[C@H](NC(=O)CCCCCCCCCCCCCCCCCCC(=O)O)C(=O)O)[C@@H](C)O)[C@@H](C)O)[C@@H](C)O)C(=O)N[C@@H](CC(C)C)C(=O)N1CCC[C@H]1C(=O)N1CCC[C@H]1C(=O)N[C@H](C(=O)N[C@@H](CC(N)=O)C(=O)N[C@H](C(=O)NCC(=O)N[C@@H](CO)C(=O)N[C@@H](CC(N)=O)C(=O)N[C@H](C(=O)N1CCC[C@H]1C(N)=O)[C@@H](C)O)C(C)C)[C@@H](C)O` [M16] ({C20 diacid-γGlu-AEEA-AEEA}-ASQLSTAATQRLADFLRHFTDRDRDILPPTNVGSNTP-NH2), for which the Relative activity was 58% and a half-maximal response (EC50) required 0.042 nM.

Regarding `CC[C@H](C)[C@H](NC(=O)[C@@H]1CCCN1C(=O)[C@H](CCCCN)NC(=O)[C@H](CC(C)C)NC(=O)[C@H](CC(N)=O)NC(=O)[C@H](CC(N)=O)NC(=O)[C@H](CO)NC(=O)[C@H](CO)NC(=O)[C@H](Cc1c[nH]cn1)NC(=O)[C@H](CCCNC(=N)N)NC(=O)[C@H](CC(C)C)NC(=O)[C@H](Cc1ccccc1)NC(=O)[C@H](CC(=O)O)NC(=O)[C@H](C)NC(=O)[C@H](CC(C)C)NC(=O)[C@H](CCCNC(=N)N)NC(=O)CNC(=O)[C@H](CC(C)C)NC(=O)[C@H](C)NC(=O)[C@H](C)NC(=O)[C@@H](NC(=O)[C@H](CO)NC(=O)[C@H](CC(C)C)NC(=O)[C@H](CCC(=O)O)NC(=O)[C@H](CO)NC(=O)[C@H](C)NC(=O)CC[C@H](NC(=O)CCCCCCCCCCCCCCCCCCC(=O)O)C(=O)O)[C@@H](C)O)C(=O)N[C@@H](CC(C)C)C(=O)N1CCC[C@H]1C(=O)N1CCC[C@H]1C(=O)N[C@H](C(=O)N[C@@H](CC(N)=O)C(=O)N[C@H](C(=O)NCC(=O)N[C@@H](CO)C(=O)N[C@@H](CC(N)=O)C(=O)N[C@H](C(=O)N1C[C@H](O)C[C@H]1C(N)=O)[C@@H](C)O)C(C)C)[C@@H](C)O` [M1] ({C20 diacid-γGlu}-ASELSTAALGRLADFLRHSSNNLKPILPPTNVGSNT[Hyp]-NH2), the Relative activity came out at 49% and the midpoint of the response, the EC50, lay at 0.053 nM.
